Measurements reported in ChEMBL document CHEMBL1777761, “Tryptamine derivatives as novel non-nucleosidic inhibitors against hepatitis B virus” (Bioorg Med Chem, 2011).

Columns and labels:
[1] = Cytotoxicity against human HepG2(2.2.15) cells after 8 days by MTT assay; format: cell-based
Hepatitis B virus = test: Antiviral activity against Hepatitis B virus infected in human HepG2(2.2.15) cells assessed as inhibition of viral DNA replication after 4 days by RT-PCR analysis; format: functional, organism-based; settings: HepG2 2.2.15, 96 h
[2] = Selectivity index, ratio of CC50 for human HepG2.2.15 cells to IC50 for Hepatitis B virus; format: functional

Compound	CC50 at 192 h [1] [µM]	IC50 (Hepatitis B virus) [µM]	Ratio CC50/IC50 [2]
[O-][N+](CCc1c[nH]c2ccccc12)(Cc1ccccn1)Cc1ccccn1	56.5	> 100	
c1ccc(CN(CCc2c[nH]c3ccccc23)Cc2ccccn2)nc1	5.8	> 25	
c1ccc2c(CCN(CC3CC3)CC3CC3)c[nH]c2c1	> 100	6	>16.7
Nc1ccn([C@@H]2CS[C@H](CO)O2)c(=O)n1 [LAMIVUDINE]	1170	0.33	3557
CCCN(CCc1c[nH]c2ccccc12)CCC(C)C	> 25	20	>1.25
C[N+](C)([O-])CCc1c[nH]c2ccc(O)cc12	> 25	< 1	>25
CC(C)CCNCCc1c[nH]c2ccccc12	> 25	> 25	
CC(C)CC[N+]([O-])(CCc1c[nH]c2ccccc12)CCC(C)C	77.6		
[O-][N+](CCc1c[nH]c2ccccc12)(Cc1cccs1)Cc1cccs1	> 100	9.4	>10.6
CC(C)CCN(CCc1c[nH]c2ccccc12)CC(C)C	> 25	1.1	>23
CC(C)CN(CCc1c[nH]c2ccccc12)CC(C)C	> 100	12.2	>8.2
CCN(CCc1c[nH]c2ccccc12)CCC(C)C	> 25	> 25	
c1ccc(CN(CCc2c[nH]c3ccccc23)Cc2ccccc2)cc1	12.4	13	0.95
CC(C)CCN(CCc1c[nH]c2ccccc12)Cc1cccs1	> 25	10.1	>2.5
CC(C)C[N+]([O-])(CCc1c[nH]c2ccccc12)CC(C)C	> 100	> 100	
CCC[N+]([O-])(CCC)CCc1c[nH]c2ccccc12	> 100	> 100	
c1ccc2c(CCN(CC3CCCCC3)CC3CCCCC3)c[nH]c2c1	> 33.3	> 100	
c1csc(CN(CCc2c[nH]c3ccccc23)Cc2cccs2)c1	> 33.3	3.9	>8.5

Compound	CC50 at 192 h [1] [µM]	IC50 (Hepatitis B virus) [µM]	Ratio CC50/IC50 [2]
[O-][N+](CCc1c[nH]c2ccccc12)(Cc1ccccc1)Cc1ccccc1	> 100	> 100	
O=[N+]([O-])c1cccc(CN(CCc2c[nH]c3ccccc23)Cc2cccc([N+](=O)[O-])c2)c1	> 100	> 100	
[O-][N+](CCc1c[nH]c2ccccc12)(CC1CCCCC1)CC1CCCCC1	23.1	> 100	
CN(C)CCc1c[nH]c2ccccc12 [N,N-DIMETHYLTRYPTAMINE]	> 100	> 100	
C[N+](C)([O-])CCc1c[nH]c2ccccc12	> 100	17.6	>5.7
CC(C)CCN(CCc1c[nH]c2ccccc12)Cc1ccco1	> 25	5.3	>4.7
CC(C)CCN(CCc1cn(S(=O)(=O)c2ccccc2)c2ccccc12)CCC(C)C	15	> 25	
COc1cc(OC)c(OC)cc1CN(CCc1c[nH]c2ccccc12)Cc1cc(OC)c(OC)cc1OC	21	1.2	17.2
C[N+](C)([O-])CCc1c[nH]c2ccc(Cl)cc12	> 25	8.4	>3
CC(C)CCN(C)CCc1c[nH]c2ccccc12	> 25	> 25	
CCN(CC)CCc1c[nH]c2ccccc12 [DIETHYLTRYPTAMINE]	> 100	> 100	
C[N+](C)([O-])CCc1c[nH]c2ccc(Br)cc12	> 25	5.4	>4.6
CC[N+]([O-])(CC)CCc1c[nH]c2ccccc12	> 100	> 100	
CC(C)CCN(CCc1c[nH]c2ccccc12)CCC(C)C	40.6	0.4	102
[O-][N+](CCc1c[nH]c2ccccc12)(Cc1ccco1)Cc1ccco1	> 100	7.5	>13.3
CCCN(CCC)CCc1c[nH]c2ccccc12	> 100	> 100	
[O-][N+](CCc1c[nH]c2ccccc12)(CC1CC1)CC1CC1	> 100	> 100	
c1coc(CN(CCc2c[nH]c3ccccc23)Cc2ccco2)c1	27.3	3.5	7.8
